Measurements published in PubChem BioAssay AID1996.
In brackets after ≈: the same amount, converted by molar mass.

conditions: buffer; pH 7.4; 200.0 µM

Row | SMILES | solubility kinetic [µg/mL]
1 | CCOC(=O)c1oc2ccccc2c1NC(=O)CCl | 10.8 (≈ 38.3 µM)
2 | CCc1ccccc1NC(=O)[C@@H]1CCC(=O)N1C1OC(=O)c2ccccc21 (stereo partly drawn) | > 54.7
3 | COc1ccccc1C(=O)Nc1ccc2c(C)cc(=O)oc2c1 | 1.3 (≈ 4.2 µM)
4 | CCCc1cc(=O)[nH]c(SCC(=O)Nc2cc(C)on2)n1 | > 46.3
5 | CC(=O)Nc1ccc(NC(=O)COC(=O)C2CCC(C(C)(C)C)CC2)cc1 (stereo not drawn) | 3.7 (≈ 9.88 µM)
6 | Cc1ccc(CN(C)C(=O)c2cccc(S(=O)(=O)N3CCCC3)c2)o1 | > 54.4
7 | CCOc1ccc(/C=N/N2C(C)CCCC2C)cc1OC (stereo not drawn) | > 43.6
8 | Fc1cccc(CSc2nc3ncc(Cl)cc3[nH]2)c1 | 2.6 (≈ 8.85 µM)
9 | O=C(Nc1cc(Cl)ccc1F)C1=COCCO1 | > 38.6
10 | O=C(Cc1ccsc1)NCC(=O)Nc1ccc(F)c(F)c1 | > 46.5
11 | Cc1ccc(C(C)NC(=O)c2cc3ccccc3oc2=O)cc1C (stereo not drawn) | 0.8 (≈ 2.49 µM)
12 | O=C(Cc1ccc([N+](=O)[O-])cc1)Nc1ccc2c(c1)CCC2 | 0.6 (≈ 2.02 µM)
13 | O=C(O)c1cccc(-n2c(O)c(C=C3N=c4ccccc4=N3)sc2=S)c1 | > 57.2
14 | O=C(Nc1cccc(-c2cscn2)c1)C1CCN(Cc2ccccn2)CC1 | > 56.8
15 | O=C(CN1C(=O)NC2(CCCC2)C1=O)Nc1cccc(Cl)c1 | > 48.3
16 | Cc1ccccc1N=C1NC(=O)/C(=C/c2cccn2C)S1 | 3.3 (≈ 11.1 µM)
17 | COc1ccc(OC)c(NC(=O)c2csc(Cl)c2OC)c1 | < 0.7
18 | CSc1ncccc1C(=O)OCC(=O)NC1CCCC1 | > 44.2
19 | C=C(C)CNC(=S)Nc1cccc(N)n1 | > 33.3
20 | O=[N+]([O-])c1cccc(Oc2cnccn2)c1 | 31.8 (≈ 146 µM)

Row | SMILES | solubility kinetic [µg/mL]
21 | COc1ccccc1N1C(=O)S/C(=C\c2cccs2)C1=O | < 0.7
22 | Cc1ccc2c(c1)C(c1ccccc1)=NCC(=O)N2C | > 39.6
23 | O=C(Nc1nc2ccsc2c(=O)s1)c1ccc(F)cc1Cl | < 0.4
24 | CC(CCc1ccccc1)NC(=O)CN(C)Cc1ccccc1F (stereo not drawn) | 48.4 (≈ 147 µM)
25 | CN(C)c1cccc(C(=O)Nc2ccc(S(=O)(=O)Nc3nccs3)cc2)c1 | > 60.4
26 | CS(=O)(=O)N1CCCC(C(=O)Nc2ccc(F)cc2)C1 (stereo not drawn) | > 45.1
27 | CCS(=O)(=O)c1ccccc1C(=O)NC1CCCc2ccccc21 (stereo not drawn) | 42.6 (≈ 124 µM)
28 | CC(C)N(C(=O)Cn1cnc2cc([N+](=O)[O-])ccc2c1=O)C(C)C | > 49.9
29 | N#Cc1ccc(S(=O)(=O)N2CCN(c3ncccn3)CC2)cc1 | 1.9 (≈ 5.77 µM)
30 | Cc1ccc(S(=O)(=O)NCCC(=O)NNc2c(F)c(F)cc(F)c2F)cc1 | > 60.8
31 | OC(c1ccccc1)c1nc2ccccc2[nH]1 (stereo not drawn) | > 33.6
32 | Cc1nn(-c2ccc(F)cc2)c(C)c1/C=C/C(=O)N1CCNC(=O)C1 | > 51.4
33 | CCOc1ccccc1NC(=O)COC(=O)CN1C(=O)NC(C)(C)C1=O | > 54.5
34 | N#Cc1cccc(CS(=O)(=O)c2ccc(Cl)cc2)c1 | 38.2 (≈ 131 µM)
35 | CC(C)(C)C(=O)Nc1ccc(S(=O)(=O)Nc2nccs2)cc1 | > 50.9
36 | Cc1[nH]c2ccccc2c1-c1nc2ccccc2[nH]c1=O | 1.3 (≈ 4.72 µM)
37 | CC(C)(C)c1ccc(C(=O)NCC(=O)N2CCNC(=O)C2)cc1 | > 47.6
38 | Cn1cc(C(O)CN2CCCCC2)c2ccccc21 (stereo not drawn) | 38.1 (≈ 147 µM)
39 | O=C(NCCNC(=O)c1ccco1)c1ccc(Cl)c(Cl)c1 | 44.7 (≈ 137 µM)
40 | Cc1cc(C)cc(NC(=O)Nc2cnccn2)c1 | 2.4 (≈ 9.91 µM)

Row | SMILES | solubility kinetic [µg/mL]
41 | Cc1nc(NCc2cccnc2)c2c3c(sc2n1)CC(C)CC3 (stereo not drawn) | 2.5 (≈ 7.71 µM)
42 | Cc1cc(C)c2c(NC(=O)CCl)nn(C)c2n1 | > 37.9
43 | CN=C1S/C(=C/c2cn(CC(=O)OC)c3ccccc23)C(=O)N1C | 4.1 (≈ 11.9 µM)
44 | COc1cc(S(=O)(=O)N2CCOCC2)ccc1NC(=O)COC(=O)c1ccc(Cl)nc1 | 6.4 (≈ 13.6 µM)
45 | C=C(C)c1cccc(C(C)(C)NC(=O)NCCN(CC)CC)c1 | 44 (≈ 139 µM)
46 | CN(CC(=O)Nc1ccccc1Cl)C1CCCCC1 | 14.7 (≈ 52.4 µM)
47 | COc1ccccc1NC(=O)CC1SC(=N)N(c2ccccc2)C1=O (stereo not drawn) | 5.3 (≈ 14.9 µM)
48 | CC(=O)N/C(=N/c1nc(C)cc(C)n1)Nc1cccc(C)c1C | 4.9 (≈ 15.7 µM)
49 | CCOCc1[nH]c(=S)[nH]c(=O)c1Cc1ccc(OC(C)C)cc1 | > 50.2
50 | CCc1ccccc1NC(=O)C1CCCN(c2ncccn2)C1 (stereo not drawn) | 8.3 (≈ 26.7 µM)
51 | Cc1nc(N2CCOCC2)[nH]c(=O)c1[N+](=O)[O-] | 33.1 (≈ 138 µM)
52 | Cc1ccc(S(=O)(=O)NC(=NC(C)C)c2ccccc2)cc1 | > 47.5
53 | C[n+]1cccc(C(=O)Nc2ccccc2)c1.[Cl-] | 30
54 | Cc1ccc(S(=O)(=O)Nc2cc3c4c(c2)CC(=O)N4CCC3)cc1 | 8.6 (≈ 25.1 µM)
55 | O=C(COC(=O)c1cccc(Br)c1)NCCC1=CCCCC1 | 2.5 (≈ 6.83 µM)
56 | CC(=O)Nc1ccccc1OCC(=O)NCC(F)(F)F | 43.2 (≈ 149 µM)
57 | Cc1ccc(-c2noc(CCCC(=O)NC3CCCC3)n2)cc1 | 44 (≈ 140 µM)
58 | CCOc1ccc(NC(=O)CN(C)C(=O)c2ccc(C)o2)cc1OCC | 52.5 (≈ 146 µM)
